Where two headings read alike, the source gives them in different places.
Tests used:
WT-SOD1 = WT-SOD1 aggregation by cellular stress; format: cell-based
SOD1 [1] = assay: Immunofluorescence staining of SOD1 aggregation and misfolded SOD1; format: cell-based, human; settings: Table 1; IF staining of SOD1
Procedure: Cells on coverslip were washed with PBS, fixed with 4% PFA at room temperature for 30 minutes, and then infiltrated with 0.1% Triton X-100/PBS for 10 minutes. The cells were treated with blocking solution (anti-Human Antibody 1:500 dilution in PBS) for 1 hour, and then cells were reacted with anti-pan SOD1 (1:400 dilution), misfolded SOD1 (B8H10; 1:200 dilution in blocking solution) at 4° C. overnight. Finally, the cells were reacted with FITC and rhodamine-conjugated secondary antibody at 4° C. for 6 hours. Nuclei were stained with 4,6-diamidino-2-phenylindole (DAPI), and endoplasmic reticula (ERs) were stained with ER-Tracker Red dye for 10 minutes. The cells were washed 3 times with PBS, and then coverslips were mounted with mounting solution [H-5501; Vector Laboratories (Burlingame, CA, USA)] and analyzed by fluorescence microscopy (Zeiss).
(§1) GFP-SOD1 (WT, G85R, G93A), non-tagged SOD1 (WT, A4V, G37R, G85R, G93A) and tdTomato-TDP43 expression vectors were purchased from Addgene (Cambridge, MA, USA). Transfection was performed using Jet-PEI reagent (JetPEI; Polyplus transfection, New York, NY, USA) according to the manufacturer's protocol. Briefly, vectors were mixed with JetPEI reagent in 150 mM NaCl buffer, and then mixture was reacted for 15 minutes. The mixture was added to cells in serum-free medium and reacted for 4 hours. After reaction, the cells were replaced with a culture medium supplemented with 10% FBS.

SOD1 [2] = assay: Western blot / native gel analysis of SOD1 aggregation; format: cell-based, human; settings: Table 1; effect on SOD1 aggregation, native / non-SDS-PAGE gel
Procedure: Using RIPA buffer (50 mM Tris-Cl, pH 7.5, 150 mM NaCl, 1% NP-40, 0.1% SDS and […]) for SDS-PAGE and lysis buffer (50 mM Tris-Cl, pH 7.5, 150 mM NaCl, 0.3% NP-40) for Native-PAGE, proteins were extracted from cells. Samples were separated by the SDS-PAGE or the Native-PAGE and transferred to PVDF membrane. Blotted membrane was blocked with TBST buffer including 3% skim milk for 1 hour, and reacted with specific antibodies. The reacted antibodies were detected by ECL and X-ray film exposure. Antibodies used in the present disclosure are as follows: pan-SOD1 (GTX100554) was purchased from Genetex (California, USA). Misfolded SOD1-specific antibody (B8H10) was purchased from MediMabs (Montreal, Canada). Actin (sc-1616), GST (sc-138), and GFP (Green fluorescent protein; sc-8036) were purchased from Santa Cruz biotechnology (Santa Cruz, CA, USA). TDP-43 antibody (10782-2-AP) was purchased from Proteintech (Rosemont, IL, USA). Anti-FLAG (Sigma; F3165) was purchased from Sigma Aldrich (St, Louis, Mo, USA), and HRP-conjugated goat anti-mouse, goat anti-rabbit, and mouse anti-goat antibodies (Pierce, Thermo Fisher Scientific, Inc., Rockford, IL, USA) were used as secondary antibodies.
as §1

[3] = system: WT-SOD1 and mutant SOD1-GST (A4V, G37R, G85R, G93A); assay: ELISA compound screening for binding inhibitor between WT-SOD1 and mutant SOD1; parameters: species or system human; settings: Table 1; compounds at final concentration of 50 μM
Procedure: For compound screening, the present inventors applied an ELISA assay system. To select a binding inhibitor between WT-SOD1 and mutant SOD1, the present inventors used 0.5% paraformaldehyde (PFA) to fix WT-SOD1 recombinant protein on a 96-well plate. The plate was dried, washed with phosphate-buffered saline (PBS), and reacted with the compounds at a final concentration of 50 μM, and then mutant SOD1-GST (A4V, G37R, G85R, G93A) proteins were added. After 2 hours of reaction, the 96-well plate was washed with PBS and blocked with 3% skim milk to prevent non specific reaction. The plate was reacted with anti-GST antibody (diluted at 1:10,000) for 1 hour, and then reacted with anti-mouse IgG-HRP (diluted at 1:50,000) for 1 hour. After washing twice, the plate was reacted with a 3,3′,5,5′-tetramethylbenzidine (TMB) solution (Calbiochem) for 30 minutes and a stop solution (1N H2SO4) for 30 minutes. Finally, the present inventors analyzed values using an ELISA reader (450 nm absorbance). Negative control (−; red line) was reacted without mutant SOD1, and positive control (+; blue line) was reacted with mutant SOD1 without the compounds.
To prepare recombinant proteins, human SOD1 (WT, A4V, G37R, G85R, G93A) was added to EcoRI and HindIII sites of pGEX-TEV vector, an improved vector made by adding a TEV protease cleavage site to pGEX-4T1 (Invitrogen). The recombinant proteins were expressed as GST-fusion proteins in Escherichia coli (E. coli) strain BL21 (DE3). The proteins were purified by glutathione-affinity chromatography.

normal human fibroblasts = assay: Cell viability measurement (MTT), normal fibroblasts; format: cell-based; settings: Table 1; cell type not given, neurons (FIG. 9A) and normal fibroblasts (FIG. 9B)
Procedure: HEK293 cells were purchased from American Type Culture Collection (ATCC, Manassas, VA, USA) and maintained at 37° C. and 5% CO2 in DMEM liquid medium including 10% fetal bovine serum and 1% penicillin-streptomycin. SK—N—SH cells were purchased from Korean Cell Line Bank (KCLB, Seoul, South Korea) and maintained in MEM medium including 10% fetal bovine serum, 1% antibiotic, 25 mM HEPES, and 300 mg/L L-Glu. Human fibroblasts (person) were purchased from Coriell Cell Repositories (New Jersey, USA) and maintained in EMEM including 15% FBS, 2 mM Glutamine, and 26 mM HEPES without antibiotics. Thapsigargin (ER calcium scavenger: CAS 67526-95-8) was purchased from Calbiochem (Darmstadt, Germany). CoCl2 (hypoxia-inducer: C8661) was purchased from Sigma Aldrich (St, Louis, Mo, USA).
To check cells viability, the cells were reacted with 0.5 mg/ml MTT solution (475989; Merck, Darmstadt, Germany) at 37° C. for 4 hours. After removing residual solution and washing with PBS, precipitate was dissolved in 200 μl DMSO, and quantified by measuring absorbance at 540 nm.

Row | ELISA [3] | SMILES | SOD1 aggregation under cellular stress agents (WT-SOD1; FIG. 1C, 1D, FIG. 2) | SOD1 aggregation under cellular stress agents (WT-SOD1) | Immuno-fluorscence (SOD1 [1]) | Western Blot (SOD1 [2]) | Toxicity (MTT) (normal human fibroblasts)
1 |  | C[N+](C)(C)CCO.C[N+](C)(C)CCO.[SH-].[SH-].[S]=[Mo]=[S] [ATN-224] | induced the WT-SOD1 aggregation |  |  |  | 
2 |  | [Cl-].[Cl-].[Co+2] [CoCl2] |  | SOD1 aggregation and increase of misfolded SOD1 |  |  | 
3 | Effect x | COc1cc(CCC(=O)O[C@H]2Cc3cc4ccc(=O)oc4cc3OC2(C)C)ccc1O [SNU-C4, (S)-8,8-dimethyl-2-oxo-7,8-dihydro-2H,6H-pyrano[3,2-g]chromen-7-yl 3-(4-hydroxy-3-methoxyphenyl) propanoate] |  |  | Effect x | Effect x | No
4 | Effect ○ | COc1ccc(/C=C/C(=O)O[C@H]2Cc3cc4ccc(=O)oc4cc3OC2(C)C)cc1OC [SNU-C5, (S)-8,8-dimethyl-2-oxo-7,8-dihydro-2H,6H-pyrano[3,2-g]chromen-7-yl (E)-3-(3,4-dimethoxyphenyl) acrylate] |  |  | Effect x | Effect x | No
5 | Effect x | COc1ccc(CCC(=O)O[C@H]2Cc3cc4ccc(=O)oc4cc3OC2(C)C)cc1OC [SNU-C7, (S)-8,8-dimethyl-2-oxo-7,8-dihydro-2H,6H-pyrano[3,2-g]chromen-7-yl 3-(3,4-dimethoxyphenyl) propanoate] |  |  | Effect x | Effect x | No
6 | Effect x | CC1(C)Oc2cc3oc(=O)ccc3cc2C[C@@H]1OC(=O)/C=C/c1ccncc1 [SNU-C9, (S)-8,8-dimethyl-2-oxo-7,8-dihydro-2H,6H-pyrano[3,2-g]chromen-7-yl (E)-3-(pyridin-4-yl) acrylate] |  |  | Effect ○ | Effect ○ | No
7 | Effect ○ | CC1(C)Oc2cc3oc(=O)ccc3cc2C[C@@H]1OC(=O)/C=C/c1cccc(O)c1 [SNU-C10, (S)-8,8-dimethyl-2-oxo-7,8-dihydro-2H,6H-pyrano[3,2-g]chromen-7-yl (E)-3-(3-hydroxyphenyl) acrylate] |  |  | Effect ○ | Effect ○ | No
8 |  | CC1(C)Oc2cc3oc(=O)ccc3cc2C[C@@H]1OC/C=C/c1ccc(F)cc1 [SNU-C13, (S,E)-7-((3-(4-fluorophenyl)allyl)oxy)-8,8-dimethyl-7,8-dihydro-2H,6H-pyrano[3,2-g]chromen-2-one] |  |  |  | Effect x | 
9 |  | COc1cc(/C=C/C(=O)O[C@H]2Cc3cc4ccc(=O)oc4cc3OC2(C)C)ccc1OC(C)=O [SNU-C17, (S)-8,8-dimethyl-2-oxo-7,8-dihydro-2H,6H-pyrano[3,2-g]chromen-7-yl (E)-3-(4-acetoxy-3-methoxyphenyl) acrylate] |  |  | Effect ○ | Effect ○ | 
10 |  | CC1(C)Oc2cc3oc(=O)ccc3cc2C[C@@H]1OC(=O)/C=C/c1ccc(F)c(F)c1 [SNU-C18, (S)-8,8-dimethyl-2-oxo-7,8-dihydro-2H,6H-pyrano[3,2-g]chromen-7-yl (E)-3-(3,4-difluorophenyl) acrylate] |  |  | Effect ○ | Effect ○ | Toxic
11 |  | c1ccc(CN(CCN(Cc2ccccn2)Cc2ccccn2)Cc2ccccn2)nc1 [TPEN] | induced the WT-SOD1 aggregation |  |  |  | 
12 |  | C/C=C(/C)C(=O)O[C@H]1C(C)=C2[C@H]([C@@H]1OC(=O)CCCCCCC)[C@@](C)(OC(C)=O)C[C@H](OC(=O)CCC)[C@@]1(O)[C@H]2OC(=O)[C@@]1(C)O [Thapsigargin] | promoted the WT-SOD1 aggregation |  |  |  | 

Row | SMILES | ELISA [3] | SOD1 aggregation under cellular stress agents (WT-SOD1; FIG. 1C, 1D, FIG. 2) | SOD1 aggregation under cellular stress agents (WT-SOD1) | Immuno-fluorscence (SOD1 [1]) | Western Blot (SOD1 [2]) | Toxicity (MTT) (normal human fibroblasts)
13 | CC(=O)Oc1cccc(/C=C/C(=O)O[C@H]2Cc3cc4ccc(=O)oc4cc3OC2(C)C)c1 [SNU-C14, (S)-8,8-dimethyl-2-oxo-7,8-dihydro-2H,6H-pyrano[3,2-g]chromen-7-yl (E)-3-(3-acetoxyphenyl) acrylate] | Effect ○ |  |  | Effect ○ | Effect ○ | No
14 | COc1cc(CCC(=O)O[C@H]2Cc3cc4ccc(=O)oc4cc3OC2(C)C)ccc1OC(C)=O [SNU-C15, (S)-8,8-dimethyl-2-oxo-7,8-dihydro-2H,6H-pyrano[3,2-g]chromen-7-yl 3-(4-acetoxy-3-methoxyphenyl) propanoate] | Effect x |  |  | Effect ○ | Effect ○ | No

From patent US12448393B2, “Use of novel compound, for preventing, improving or treating amyotrophic lateral sclerosis” (PRG S&TECH INC., priority 2019, dated 2025)
